Assays:
U2OS cells [1] = test: Size of LAMP1-RFP-labeled vacuoles (lysosomes), confocal microscopy; type: cell-based, human
Procedure: LAMP1 protein is a lysosomal membrane marker. Nuclei were stained with DAPI. Therefore, the enlarged cytoplasmic vacuoles induced by compounds from this invention are lysosomes.
The selection of circular, enlarged, lysosomes was carried out using a size mask of 0.5 to 5.0 μm^2. Punctate lysosomes were selected with a size mask of 0.1 to 1.5 μm^2. Thresholds were the same for all images. Clustered lysosomes were not included in the size analysis. The mean area (μm^2)±SEM was plotted (O). From 235 to 545 lysosomes were measured for each time point. The number of lysosomes per μm^2 (E) was determined at the beginning and end of this experiment and plotted on a separate Y-axis.

[2] = system: cathepsin D (CTSD) in U2OS cells; test: Cathepsin D maturation, Western immuno-blotting; type: cell-based, human; details: 4 h
Procedure: Mature and immature cathepsin D (CTSD), LC3-I, LC3-II, and β-actin proteins were identified by Western immuno-blotting, under the same conditions, and detected with specific antibodies and by co-fractionation with molecular mass markers (kDa). Cathepsin D maturation via proteolysis requires acidity.
Total cell lysates were prepared (in 4× dye). Proteins were fractionated at 200V in a NuPAGE 4-12% bis-tris polyacrylamide gel (NP0323, Novex) using NuPAGE MES running buffer (NP0002, Novex) and then stained with PageBlue (24260, Thermo Scientific) in order to quantify the relative amount of histones in each sample. […] Proteins were wet-transferred onto nitrocellulose membranes (162-0112, Bio-Rad) using NuPAGE transfer buffer (NP-0006-1, Novex) for 1 hour at 30V. Membranes were then stained with dilute Ponceau S solution, blocked in 5% milk for 30 minutes at room temperature, and incubated overnight at 4° C. in primary antibody. Membranes were washed with phosphate buffered saline with tween 20 (PBST) three times for 10 min. each, incubated with secondary antibodies in 5% milk for 1 hour, washed three times with PBST again, covered in ECL (SuperSignal West Pico chemiluminescent substrate, 34080, Thermo Scientific) and exposed to film (HyBlot ES, E3218, Denville Scientific).

U2OS cells [3] = test: GFP-LC3 / LAMP1-RFP co-localization (autolysosome formation); type: cell-based, human; details: compound 1 or rapamycin and compound 1, 4 hours
Procedure: Confocal microscopic images are shown in FIG. 13A of U2OS cells that were co-transfected with a GFP-LC3B expression vector to label autophagosomes green and a LAMP1-RFP expression vector to label lysosomes red. Cells were then treated for 4 hrs with 1 μM rapamycin to induce autophagy, or with 1 μM compound 1 to disrupt autophagy, or with both 1 μM rapamycin and 1 μM compound 1. Cells were then fixed and viewed by confocal microscopy. Nuclei were stained with DAPI. […] The mean±SEM results from 50 cells is given for two independent experiments.
To determine whether or not the absence of an acidic environment resulted from failure of lysosomes to fuse with autophagosomes, cells were transfected with both GFP-LC3 and LAMP1-RFP expression vectors, and then cultured for 4 hours in the presence of vehicle, rapamycin, or both rapamycin and compound 1 (FIG. 13). Rapamycin is an established inducer of autophagy (42, 43). As expected, rapamycin induced accumulation of GFP-LC3 labeled autophagosomes (green), some of which were autolysosomes, as shown by co-localization with LAMP1-RFP on control cells. In contrast, GFP-LC3 and LAMP1-RFP labeled different populations of vesicles in cells cultured with either compound 1 or rapamycin and compound 1, despite the fact that the density of autophagosomes was at least 3-fold greater.

osteosarcoma U2OS cells = test: U2OS cell proliferation; type: cell-based, human
Text: These effects are dependent on the compound selected, its concentration and the length of time cells are exposed to the compound.
(§1) Cells were obtained from the American Type Culture Collection. BORCS5-KO HeLa cells have been described previously. Osteosarcoma U2OS were routinely seeded in 6-well plates (0.5×10^5 cells/well) and cultured in Dulbecco's Modified Eagle's medium supplemented with L-Glutamine, 4.5 g/L Glucose, Sodium Pyruvate, Phenol Red, and either heat-inactivated or normal 10% fetal calf serum at 37° C. in 5% CO2. Approximately 15-19 hours later, the indicated compound was added in 1:1000 dilutions. Results were the same using either heat-inactivated or normal fetal calf serum. Melanoma A375, embryonic kidney 293T and human foreskin fibroblast Hs27 cells were cultured in the same medium, except that cells were seeded into 12-well plates at 10^3 cells/well.

[4] = system: human foreskin fibroblasts; test: Proliferation/viability of human foreskin fibroblasts; type: cell-based; details: Fibroblast; human foreskin fibroblasts; read-out: EC50
Procedure: Concentration of each compound in the plate assay is indicated below the compound 1 plate.
as §1, with “Results were the same using either heat-inactivated or normal fetal calf serum.” left out

[5] = system: breast adenocarcinoma cells; test: Viability of breast adenocarcinoma cells; type: cell-based; details: Homo sapiens; breast adenocarcinoma cells; read-out: EC50
Procedure: FIG. 18 summarizes results from 13 human cell lines. All cells were seeded at the same cell density in a rich culture medium and assayed under identical conditions. Compound 1 efficacy is the ratio of cell viability with compound 1 to cell viability with chloroquine derivatives.

melanoma A375 tumors [6] = test: Expansion of preformed A375 tumors in inbred nude mice; type: in vivo; details: 20 or 40 mg/kg intraperitoneally each day for 14 days
Procedure: (A) Melanoma A375 cells were cultured to 80% confluency and then inoculated subcutaneously into both flanks of inbred nude mice. Palpable tumors (˜40-50 mm^3) appeared within 7 days. (B) Either vehicle or 20 or 40 mg of compound 1 per kg of the mouse was injected intraperitoneally each day for a period of 14 days. Compound 1 was dissolved in sunflower seed oil. Tumors were excised on day 21. […] Error bars indicate the SEM for 6 tumors.
To determine whether or not compound 1 could inhibit expansion of a preformed tumor that arose from autophagy-dependent cancer cells, melanoma A375 cells were inoculated into the flanks of immuno-compromised mice and allowed to form a palpable tumor. Mice were then injected intraperitoneally once a day with varying amount of compound 1.

melanoma A375 tumors [7] = test: Vacuolation and autophagy markers within tumors of treated mice; type: in vivo
Text: Cytoplasmic vacuolation was clear in tumors from compound 1-treated mice, and the extent of vacuolation was clearly greater at with greater concentrations of compound 1.
To determine whether or not compound 1 injected intraperitoneally was active within the tumor, tumor slices were stained with hematoxylin and eosin to visualize cellular structure.

SMILES: C1=Nc2ccccc2/C1=C/NNc1nc(Nc2ccccc2)nc(N2CCOCC2)n1 [compound 1]
- Time for lysosomal motility and size to revert after removal of the compound (U2OS cells [1]; live cells expressing LAMP1-RFP): within one hour
- Increase in size of LAMP1-labeled vacuoles (U2OS cells [1]; within 20 hours, 1 μM): 9 fold
- Cellular level of mature cathepsin D relative to vehicle treated cells [2]: about 50%
- Density of autophagosomes relative to rapamycin alone (U2OS cells [3]): at least 3 fold
- Efficacy at inhibiting U2OS cell proliferation relative to HCQ or CQ (osteosarcoma U2OS cells): 21 times
- Effect on U2OS cells (osteosarcoma U2OS cells; 0.1 μM): reduced the proliferation rate
- Efficacy at arresting growth and proliferation relative to HCQ and CQ (osteosarcoma U2OS cells; cancer cells that depend on autophagy but are not addicted): 20 ×
- EC50 [4]: > 10 µM
- EC50 [5]: > 10 µM
- Ill effects on mice (melanoma A375 tumors [6]): no exhibited ill effects
- Expansion of preformed tumors (melanoma A375 tumors [6]; inbred nude mice): inhibited by compound 1 in a dose dependent manner
- LC3-II and p62 proteins in tumor lysates (melanoma A375 tumors [7]; Western blot): increased levels of LC3-H and p62 proteins
- Cytoplasmic vacuolation in tumor slices (melanoma A375 tumors [7]; hematoxylin and eosin): clearly evident

From patent US11471460B2, “Autophagy modulators for use in treating cancer” (The United States of America,as represented by the …, priority 2017, dated 2022)
